The target in assay [1] is T1, complement C5a receptor 1 (C5aR1) (Homo sapiens, UniProt P21730).
T1 construct: β-galactosidase fragment (PathHunter enzyme complementation); host or cells: CHO-K1 (PathHunter CHO-K1 C5aR1 β-arrestin cell line)
T1 sequence (P21730 1-350): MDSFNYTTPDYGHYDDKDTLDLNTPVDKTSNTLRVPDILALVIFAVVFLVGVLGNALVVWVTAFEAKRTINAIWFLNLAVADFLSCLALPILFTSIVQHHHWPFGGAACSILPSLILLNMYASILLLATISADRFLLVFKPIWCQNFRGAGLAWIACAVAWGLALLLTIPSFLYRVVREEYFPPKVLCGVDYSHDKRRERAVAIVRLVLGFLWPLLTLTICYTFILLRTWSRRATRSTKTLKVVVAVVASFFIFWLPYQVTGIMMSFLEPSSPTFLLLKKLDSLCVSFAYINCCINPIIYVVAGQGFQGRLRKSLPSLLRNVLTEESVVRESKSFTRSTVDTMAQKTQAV
As to the kind of experiment: β-arrestin recruitment via C5aR1 activation in live CHO-K1 cells (PathHunter), antagonist mode. It is filed as cell-based. Conditions: antagonist mode; recombinant hC5a (EC90) as competing natural agonist; live CHO-K1 cells; read-out: [Antagonist] B-arrestin2 recruitment: Average IC50; call rule not given here. In outline: (§1)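 β-arrestin recruitment to C5aR1 in CHO-K1 cells is detected by enzyme-fragment complementation. Antagonism is measured against recombinant hC5a at its EC90; agonism is measured with compound alone. Potencies are grouped into IC50 categories.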

Assay [2] addresses T1, complement C5a receptor 1 (C5aR1). As to the kind of experiment: β-arrestin recruitment via C5aR1 activation in live CHO-K1 cells (PathHunter), agonist mode. The class given is cell-based. In outline:
as §1
A general note: Activated receptors often draw arrestin, which recruitment assays turn into a signal.

For orientation: IC50 means the point on the concentration scale where inhibition reaches its midpoint.

Read-outs that look alike come from different tables or passages of the source.

In the case of `Cc1cnc2cc(C3CCN(c4c(C)ccnc4F)CC3)c(=O)n(Cc3nccnc3C)c2n1` [compound 134, 7-(1-(2-Fluoro-4-methylpyridin-3-yl)piperidin-4-yl)-3-methyl-5-((3-methylpyrazin-2-yl)methyl)pyrido[2,3-b]pyrazin-6(5H)-one], the half-inhibitory concentration (IC50) in assay [1] was below 500 nM. The “[Agonist] B-arrestin2 recruitment: Average EC50 (nM)” value (“[Agonist] B-arrestin2 recruitment” below) in assay [2] (at 10 μM) is “Non-Active at 10 μM”.

Consider `Cc1ccc2cc([C@H]3CC[C@H](c4cnccc4C(F)(F)F)CC3)c(=O)n(Cc3ncccc3C(C)(F)F)c2n1` [compound 254, 1-{[3-(1,1-Difluoroethyl)-2-pyridyl]methyl}-7-methyl-3-{(1r,4r)-4-[4-(trifluoromethyl)-3-pyridyl]cyclohexyl}-1,8-diaza-2(1H)-naphthalenone], for which the half-inhibitory concentration (IC50) in assay [1] is below 500 nM. Moreover, in assay [2], the “[Agonist] B-arrestin2 recruitment” value is listed as “Non-Active”.

Consider `Cc1cnc2cc(C3CCN(c4cnsc4C)CC3)c(=O)n(Cc3ncccc3C(F)(F)F)c2n1` [compound 145, 3-Methyl-7-(1-(5-methylisothiazol-4-yl)piperidin-4-yl)-5-((3-(trifluoromethyl)pyridin-2-yl)methyl)pyrido[2,3-b]pyrazin-6(5H)-one], for which the IC50 in assay [1] is below 500 nM. Also, the “[Agonist] B-arrestin2 recruitment” value in assay [2] is listed as “Non-Active”.

As to `Cc1cnc2cc([C@H]3CC[C@H](c4scnc4C)CC3)c(=O)n(Cc3ncccc3C(F)(F)F)c2n1` [compound 164, 3-Methyl-7-((1r,4r)-4-(4-methylthiazol-5-yl)cyclohexyl)-5-((3-(trifluoromethyl)pyridin-2-yl)methyl)pyrido[2,3-b]pyrazin-6(5H)-one], in assay [1], the IC50 fell in the range of 500 to 5000 nM. Also, in assay [2] (at 10 μM), the “[Agonist] B-arrestin2 recruitment” value was “Non-Active at 10 μM”.

For the compound `Cc1ncc(F)cc1N1CCC(c2cc3nccnc3n(Cc3nccnc3C(F)(F)F)c2=O)CC1` [compound 45, 7-(1-(5-Fluoro-2-methylpyridin-3-yl)piperidin-4-yl)-5-((3-(trifluoromethyl)pyrazin-2-yl)methyl)pyrido[2,3-b]pyrazin-6(5H)-one], the IC50 in assay [1] was above 100000 nM. The “[Agonist] B-arrestin2 recruitment” value in assay [2] is “Non-Active”.

As to `Cc1cnc2cc(N3CCN(c4c(C)cccc4F)CC3)c(=O)n(Cc3nccnc3OC(F)F)c2n1` [161A, 5-((3-(Difluoromethoxy)pyrazin-2-yl)methyl)-7-(4-(2-fluoro-6-methylphenyl)piperazin-1-yl)-3-methylpyrido[2,3-b]pyrazin-6(5H)-one], the IC50 in assay [1] lay in the range of 500 to 5000 nM. The “[Agonist] B-arrestin2 recruitment” value in assay [2] (at 10 μM) is “Non-Active at 10 μM”.

`Cc1cnc2cc([C@@H]3CC[C@H](c4c(C)cccc4F)C3)c(=O)n(Cc3ncccc3C(F)(F)F)c2n1` [171B, 7-((1R,3S)-3-(2-Fluoro-6-methylphenyl)cyclopentyl)-3-methyl-5-((3-(trifluoromethyl)pyridin-2-yl)methyl)pyrido[2,3-b]pyrazin-6(5H)-one]: in assay [1], the concentration for half-maximal inhibition (IC50) is below 500 nM. The “[Agonist] B-arrestin2 recruitment” value in assay [2] (at 10 μM) is listed as “Non-Active at 10 μM”.

Take `Cc1cnc2cc(C3CCN(c4c(C)cccc4F)CC3)c(=O)n(Cc3ncccc3C(F)(F)F)c2n1` [compound 41, 7-(1-(2-Fluoro-6-methylphenyl)piperidin-4-yl)-3-methyl-5-((3-(trifluoromethyl)pyridin-2-yl)methyl)pyrido[2,3-b]pyrazin-6(5H)-one]: the IC50 in assay [1] is below 500 nM. For the same compound, the “[Agonist] B-arrestin2 recruitment” value in assay [2] is reported as “Non-Active”.

`Cc1ccc2cc([C@H]3CC[C@H](c4c(C)cccc4F)CC3)c(=O)n(Cc3ccccc3C(F)(F)F)c2n1` [compound 225, 3-((1r,4r)-4-(2-Fluoro-6-methylphenyl)cyclohexyl)-7-methyl-1-(2-(trifluoromethyl)benzyl)-1,8-naphthyridin-2(1H)-one]: the IC50 in assay [1] was below 500 nM. Further, in assay [2] (at 10 μM), the “[Agonist] B-arrestin2 recruitment” value was “Non-Active at 10 μM”.

As for `O=c1c(C2CCN(c3ccccc3C(F)(F)F)CC2)cc2nccnc2n1Cc1nccnc1C(F)(F)F` [compound 64, 7-(1-(2-(Trifluoromethyl)phenyl)piperidin-4-yl)-5-((3-(trifluoromethyl)pyrazin-2-yl)methyl)pyrido[2,3-b]pyrazin-6(5H)-one], the half-inhibitory concentration (IC50) in assay [1] was 500 to 5000 nM. The “[Agonist] B-arrestin2 recruitment” value in assay [2] is given as “Non-Active”.

For the compound `Cc1cnc2cc(C3CCN(c4c(C)ccnc4F)CC3)c(=O)n(Cc3ncccc3C(F)F)c2n1` [compound 141, 5-((3-(Difluoromethyl)pyridin-2-yl)methyl)-7-(1-(2-fluoro-4-methylpyridin-3-yl)piperidin-4-yl)-3-methylpyrido[2,3-b]pyrazin-6(5H)-one], the half-maximal inhibitory concentration (IC50) in assay [1] is below 500 nM. Moreover, the “[Agonist] B-arrestin2 recruitment” value in assay [2] is recorded as “Non-Active”.

With `COc1cccnc1Cn1c(=O)c([C@H]2CC[C@H](c3c(C)cccc3F)CC2)cc2nc(C(F)(F)F)cnc21` [compound 214, 7-((1r,4r)-4-(2-Fluoro-6-methylphenyl)cyclohexyl)-5-((3-methoxypyridin-2-yl)methyl)-2-(trifluoromethyl)pyrido[2,3-b]pyrazin-6(5H)-one], the IC50 in assay [1] was 5000 to 100000 nM. In addition, in assay [2] (at 10 μM), the “[Agonist] B-arrestin2 recruitment” value is “Non-Active at 10 μM”.

On to `Cc1cnc2cc([C@H]3CC[C@H](c4c(C)cccc4F)CC3)c(=O)n(Cc3ncccc3OC(F)(F)F)c2n1` [compound 152, 7-((1r,4r)-4-(2-Fluoro-6-methylphenyl)cyclohexyl)-3-methyl-5-((3-(trifluoromethoxy)pyridin-2-yl)methyl)pyrido[2,3-b]pyrazin-6(5H)-one], for which the half-inhibitory concentration (IC50) in assay [1] was below 500 nM. Also, in assay [2], the “[Agonist] B-arrestin2 recruitment” value is “Non-Active”.

In the case of `Cc1cnc2cc(C3CCN(c4nncs4)CC3)c(=O)n(Cc3ncccc3C(F)(F)F)c2n1` [compound 132, 7-(1-(1,3,4-Thiadiazol-2-yl)piperidin-4-yl)-3-methyl-5-((3-(trifluoromethyl)pyridin-2-yl)methyl)pyrido[2,3-b]pyrazin-6(5H)-one], the half-inhibitory concentration (IC50) in assay [1] is above 100000 nM. For the same compound, the “[Agonist] B-arrestin2 recruitment” value in assay [2] is on record as “Non-Active”.

As to `Cc1cccc(F)c1N1CCC(c2cc3nccnc3n(Cc3nccnc3C(F)(F)F)c2=O)C1` (centres unmarked) [compound 23, 7-(1-(2-Fluoro-6-methylphenyl)pyrrolidin-3-yl)-5-((3-(trifluoromethyl)pyrazin-2-yl)methyl) pyrido[2,3-b]pyrazin-6(5H)-one], in assay [1], the IC50 was in the range of 500 to 5000 nM. In assay [2], the “[Agonist] B-arrestin2 recruitment” value is reported as “Non-Active”.

Regarding `Cc1cnc2cc([C@H]3CC[C@H](c4c(F)cccc4F)CC3)c(=O)n(Cc3ncccc3C3CC3)c2n1` [compound 235, 5-((3-Cyclopropylpyridin-2-yl)methyl)-7-((1r,4r)-4-(2,6-difluorophenyl)cyclohexyl)-3-methylpyrido[2,3-b]pyrazin-6(5H)-one], the IC50 in assay [1] is below 500 nM. In assay [2] (at 10 μM), the “[Agonist] B-arrestin2 recruitment” value is “Non-Active at 10 μM”.

Take `Cc1cnc2cc([C@H]3CC[C@H](c4cnccc4C(C)(F)F)CC3)c(=O)n(Cc3ncccc3C(F)(F)F)c2n1` [compound 188, 7-((1r,4r)-4-(4-(1,1-Difluoroethyl)pyridin-3-yl)cyclohexyl)-3-methyl-5-((3-(trifluoromethyl)pyridin-2-yl)methyl)pyrido[2,3-b]pyrazin-6(5H)-one]: the half-inhibitory concentration (IC50) in assay [1] is below 500 nM. For the same compound, the “[Agonist] B-arrestin2 recruitment” value in assay [2] (at 10 μM) is given as “Non-Active at 10 μM”.

Take `Cc1cnc2cc([C@H]3CC[C@H](c4c(C)nn(C)c4C)CC3)c(=O)n(Cc3ncccc3C(F)(F)F)c2n1` [compound 190, 3-Methyl-5-((3-(trifluoromethyl)pyridin-2-yl)methyl)-7-((1r,4r)-4-(1,3,5-trimethyl-1H-pyrazol-4-yl)cyclohexyl)pyrido[2,3-b]pyrazin-6(5H)-one]: the half-inhibitory concentration (IC50) in assay [1] fell in the range of 500 to 5000 nM. For the same compound, the “[Agonist] B-arrestin2 recruitment” value in assay [2] (at 10 μM) is recorded as “Non-Active at 10 μM”.

Turning to `Cc1cnc2cc([C@H]3CC[C@H](c4c(C)cccc4F)C3)c(=O)n(Cc3nccnc3C)c2n1` [172C, 7-((1S,3S)-3-(2-Fluoro-6-methylphenyl)cyclopentyl)-3-methyl-5-((3-methylpyrazin-2-yl)methyl)pyrido[2,3-b]pyrazin-6(5H)-one], the half-inhibitory concentration (IC50) in assay [1] is below 500 nM. For the same compound, in assay [2] (at 10 μM), the “[Agonist] B-arrestin2 recruitment” value is reported as “Non-Active at 10 μM”.

With `Cc1cnc2cc(C3CCN(c4c(C)ccc5c4cnn5C)CC3)c(=O)n(Cc3ncccc3C(F)(F)F)c2n1` [compound 185, 7-(1-(1,5-Dimethyl-1H-indazol-4-yl)piperidin-4-yl)-3-methyl-5-((3-(trifluoromethyl)pyridin-2-yl)methyl)pyrido[2,3-b]pyrazin-6(5H)-one], in assay [1], the IC50 is 500 to 5000 nM. The “[Agonist] B-arrestin2 recruitment” value in assay [2] (at 10 μM) was “Non-Active at 10 μM”.

For `Cc1cnc2cc([C@H]3CC[C@@H](c4c(C)cccc4F)C3)c(=O)n(Cc3ncccc3C(F)(F)F)c2n1` [171A, 7-((1S,3R)-3-(2-Fluoro-6-methylphenyl)cyclopentyl)-3-methyl-5-((3-(trifluoromethyl)pyridin-2-yl)methyl)pyrido[2,3-b]pyrazin-6(5H)-one], the IC50 in assay [1] was below 500 nM. Also, the “[Agonist] B-arrestin2 recruitment” value in assay [2] (at 10 μM) was “Non-Active at 10 μM”.

As to `Cc1ccnc(F)c1N1CCC(c2cc3nccnc3n(Cc3ncccc3C(F)(F)F)c2=O)CC1` [compound 127, 7-(1-(2-Fluoro-4-methylpyridin-3-yl)piperidin-4-yl)-5-((3-(trifluoromethyl)pyridin-2-yl)methyl)pyrido[2,3-b]pyrazin-6(5H)-one], the IC50 in assay [1] is below 500 nM. Also, the “[Agonist] B-arrestin2 recruitment” value in assay [2] was “Non-Active”.

Source of the values: patent US20260317320A1, “C5AR1 ANTAGONISTS AND USES THEREOF” (Vanqua Bio, Inc., priority 2022, published 2026).
